{"source": "ChEMBL document CHEMBL3045916", "about": "“Synthesis, characterization, biological evaluation and in silico screening of oxadiazinanones” (Med Chem Res, 2013)", "key": {"Aspergillus fumigatus [1]": {"tested_on": "Aspergillus fumigatus", "assay": "Antifungal activity against Aspergillus fumigatus assessed as growth inhibition after 48 hr by agar disk diffusion method", "type": "functional"}, "Pseudomonas aeruginosa [2]": {"tested_on": "Pseudomonas aeruginosa", "assay": "Bactericidal activity against Pseudomonas aeruginosa ATCC 9029 after 18 to 24 hr", "type": "functional"}, "Pseudomonas aeruginosa [3]": {"tested_on": "Pseudomonas aeruginosa", "assay": "Antibacterial activity against Pseudomonas aeruginosa ATCC 9029 assessed as growth inhibition after 24 hr by macro-dilution method", "type": "functional", "settings": "ATCC 9029, 24 h"}, "Staphylococcus aureus [4]": {"tested_on": "Staphylococcus aureus", "assay": "Bactericidal activity against methicillin-resistant Staphylococcus aureus after 18 to 24 hr", "type": "functional"}, "Klebsiella pneumoniae [5]": {"tested_on": "Klebsiella pneumoniae", "assay": "Antibacterial activity against Klebsiella pneumoniae clinical isolate assessed as growth inhibition after 24 hr by macro-dilution method", "type": "functional"}, "Streptococcus pyogenes [6]": {"tested_on": "Streptococcus pyogenes", "assay": "Antibacterial activity against Streptococcus pyogenes clinical isolate assessed as growth inhibition after 24 hr by disk diffusion method", "type": "functional"}, "Talaromyces marneffei [7]": {"tested_on": "Talaromyces marneffei", "assay": "Antifungal activity against Talaromyces marneffei assessed as growth inhibition after 48 hr by macro-dilution method", "type": "functional"}, "[8]": {"tested_on": "Radical scavenging activity", "assay": "Antioxidant activity assessed as DPPH radical scavenging activity at 2 ug/mL after 30 min by spectrophotometric analysis relative to control", "type": "functional"}, "Aspergillus fumigatus [9]": {"tested_on": "Aspergillus fumigatus", "assay": "Fungicidal activity against Aspergillus fumigatus after 48 hr", "type": "functional"}, "[10]": {"tested_on": "Trichophyton mentagrophytes", "assay": "Fungicidal activity against Trichophyton mentagrophytes after 48 hr", "type": "functional"}, "[11]": {"tested_on": "Radical scavenging activity", "assay": "Antioxidant activity assessed as DPPH radical scavenging activity at 6 ug/mL after 30 min by spectrophotometric analysis relative to control", "type": "functional"}, "[12]": {"tested_on": "Radical scavenging activity", "assay": "Antioxidant activity assessed as DPPH radical scavenging activity after 30 min by spectrophotometric analysis", "type": "functional"}, "[13]": {"tested_on": "Radical scavenging activity", "assay": "Antioxidant activity assessed as DPPH radical scavenging activity at 8 ug/mL after 30 min by spectrophotometric analysis relative to control", "type": "functional"}, "Talaromyces marneffei [14]": {"tested_on": "Talaromyces marneffei", "assay": "Fungicidal activity against Talaromyces marneffei after 48 hr", "type": "functional"}, "Candida albicans [15]": {"tested_on": "Candida albicans", "assay": "Antifungal activity against Candida albicans ATCC 90028 assessed as growth inhibition after 48 hr by agar disk diffusion method", "type": "functional"}, "[16]": {"tested_on": "Trichophyton mentagrophytes", "assay": "Antifungal activity against Trichophyton mentagrophytes assessed as growth inhibition after 48 hr by agar disk diffusion method", "type": "functional"}, "Staphylococcus aureus [17]": {"tested_on": "Staphylococcus aureus", "assay": "Antibacterial activity against methicillin-resistant Staphylococcus aureus assessed as growth inhibition after 24 hr by disk diffusion method", "type": "functional"}, "Aspergillus fumigatus [18]": {"tested_on": "Aspergillus fumigatus", "assay": "Antifungal activity against Aspergillus fumigatus assessed as growth inhibition after 48 hr by macro-dilution method", "type": "functional"}, "Klebsiella pneumoniae [19]": {"tested_on": "Klebsiella pneumoniae", "assay": "Antibacterial activity against Klebsiella pneumoniae clinical isolate assessed as growth inhibition after 24 hr by disk diffusion method", "type": "functional"}, "Streptococcus pyogenes [20]": {"tested_on": "Streptococcus pyogenes", "assay": "Antibacterial activity against Streptococcus pyogenes clinical isolate assessed as growth inhibition after 24 hr by macro-dilution method", "type": "functional"}, "Streptococcus pyogenes [21]": {"tested_on": "Streptococcus pyogenes", "assay": "Bactericidal activity against Streptococcus pyogenes clinical isolate after 18 to 24 hr", "type": "functional"}, "Escherichia coli [22]": {"tested_on": "Escherichia coli", "assay": "Bactericidal activity against Escherichia coli ATCC 25922 after 18 to 24 hr", "type": "functional"}, "Klebsiella pneumoniae [23]": {"tested_on": "Klebsiella pneumoniae", "assay": "Bactericidal activity against Klebsiella pneumoniae clinical isolate after 18 to 24 hr", "type": "functional"}, "Pseudomonas aeruginosa [24]": {"tested_on": "Pseudomonas aeruginosa", "assay": "Antibacterial activity against Pseudomonas aeruginosa ATCC 9029 assessed as growth inhibition after 24 hr by disk diffusion method", "type": "functional"}, "Talaromyces marneffei [25]": {"tested_on": "Talaromyces marneffei", "assay": "Antifungal activity against Talaromyces marneffei assessed as growth inhibition after 48 hr by agar disk diffusion method", "type": "functional"}, "[26]": {"tested_on": "Trichophyton mentagrophytes", "assay": "Antifungal activity against Trichophyton mentagrophytes assessed as growth inhibition after 48 hr by macro-dilution method", "type": "functional"}, "Candida albicans [27]": {"tested_on": "Candida albicans", "assay": "Antifungal activity against Candida albicans ATCC 90028 assessed as growth inhibition after 48 hr by macro-dilution method", "type": "functional", "settings": "ATCC 90028, 48 h"}, "Staphylococcus aureus [28]": {"tested_on": "Staphylococcus aureus", "assay": "Antibacterial activity against methicillin-resistant Staphylococcus aureus assessed as growth inhibition after 24 hr by macro-dilution method", "type": "functional"}, "Escherichia coli [29]": {"tested_on": "Escherichia coli", "assay": "Antibacterial activity against Escherichia coli ATCC 25922 assessed as growth inhibition after 24 hr by disk diffusion method", "type": "functional"}, "Candida albicans [30]": {"tested_on": "Candida albicans", "assay": "Fungicidal activity against Candida albicans ATCC 90028 after 48 hr", "type": "functional", "settings": "ATCC 90028, 48 h"}, "[31]": {"tested_on": "Radical scavenging activity", "assay": "Antioxidant activity assessed as DPPH radical scavenging activity at 10 ug/mL after 30 min by spectrophotometric analysis relative to control", "type": "functional"}, "Escherichia coli [32]": {"tested_on": "Escherichia coli", "assay": "Antibacterial activity against Escherichia coli ATCC 8739 assessed as growth inhibition after 24 hr by macro-dilution method", "settings": "ATCC 8739, 24 h"}, "[33]": {"tested_on": "Radical scavenging activity", "assay": "Antioxidant activity assessed as DPPH radical scavenging activity at 4 ug/mL after 30 min by spectrophotometric analysis relative to control", "type": "functional"}}}
{"smiles": "CC1(c2ccc(O)cc2O)NNC(=O)CO1", "note": "(stereo not drawn)", "values": [{"measurement": "diameter of the inhibition zone (DIZ)", "setting": "Aspergillus fumigatus [1]", "value": 16.2, "unit": "mm"}, {"measurement": "MBC", "setting": "Pseudomonas aeruginosa [2]", "value": "> 100", "unit": "µg/mL"}, {"measurement": "MIC", "setting": "Pseudomonas aeruginosa [3]", "value": 50, "unit": "µg/mL"}, {"measurement": "MBC", "setting": "Staphylococcus aureus [4]", "value": 100, "unit": "µg/mL"}, {"measurement": "MIC", "setting": "Klebsiella pneumoniae [5]", "value": 50, "unit": "µg/mL"}, {"measurement": "diameter of the inhibition zone (DIZ)", "setting": "Streptococcus pyogenes [6]", "value": 18.1, "unit": "mm"}, {"measurement": "MIC", "setting": "Talaromyces marneffei [7]", "value": 50, "unit": "µg/mL"}, {"measurement": "Activity", "setting": "[8]", "value": 15.7, "unit": "%"}, {"measurement": "MFC", "setting": "Aspergillus fumigatus [9]", "value": 100, "unit": "µg/mL"}, {"measurement": "MFC", "setting": "[10]", "value": 100, "unit": "µg/mL"}, {"measurement": "Activity", "setting": "[11]", "value": 49, "unit": "%"}, {"measurement": "IC50", "setting": "[12]", "value": 6.28, "unit": "µg/mL"}, {"measurement": "Activity", "setting": "[13]", "value": 64, "unit": "%"}, {"measurement": "MFC", "setting": "Talaromyces marneffei [14]", "value": "> 100", "unit": "µg/mL"}, {"measurement": "diameter of the inhibition zone (DIZ)", "setting": "Candida albicans [15]", "value": 20.2, "unit": "mm"}, {"measurement": "diameter of the inhibition zone (DIZ)", "setting": "[16]", "value": 14.1, "unit": "mm"}, {"measurement": "diameter of the inhibition zone (DIZ)", "setting": "Staphylococcus aureus [17]", "value": 17.1, "unit": "mm"}, {"measurement": "MIC", "setting": "Aspergillus fumigatus [18]", "value": 50, "unit": "µg/mL"}, {"measurement": "diameter of the inhibition zone (DIZ)", "setting": "Klebsiella pneumoniae [19]", "value": 14.1, "unit": "mm"}, {"measurement": "MIC", "setting": "Streptococcus pyogenes [20]", "value": 50, "unit": "µg/mL"}, {"measurement": "MBC", "setting": "Streptococcus pyogenes [21]", "value": 100, "unit": "µg/mL"}, {"measurement": "MBC", "setting": "Escherichia coli [22]", "value": 100, "unit": "µg/mL"}, {"measurement": "MBC", "setting": "Klebsiella pneumoniae [23]", "value": 100, "unit": "µg/mL"}, {"measurement": "diameter of the inhibition zone (DIZ)", "setting": "Pseudomonas aeruginosa [24]", "value": 24.4, "unit": "mm"}, {"measurement": "diameter of the inhibition zone (DIZ)", "setting": "Talaromyces marneffei [25]", "value": 11.1, "unit": "mm"}, {"measurement": "MIC", "setting": "[26]", "value": 50, "unit": "µg/mL"}, {"measurement": "MIC", "setting": "Candida albicans [27]", "value": 50, "unit": "µg/mL"}, {"measurement": "MIC", "setting": "Staphylococcus aureus [28]", "value": 50, "unit": "µg/mL"}, {"measurement": "diameter of the inhibition zone (DIZ)", "setting": "Escherichia coli [29]", "value": 17.2, "unit": "mm"}, {"measurement": "MFC", "setting": "Candida albicans [30]", "value": 100, "unit": "µg/mL"}, {"measurement": "Activity", "setting": "[31]", "value": 81.1, "unit": "%"}, {"measurement": "MIC", "setting": "Escherichia coli [32]", "value": 50, "unit": "µg/mL"}, {"measurement": "Activity", "setting": "[33]", "value": 30.2, "unit": "%"}]}
